Assay results from patent US20050191359A1, “Water soluble nanoparticles and method for their production” (SoluBest Ltd., priority 2001, published 2005).

What was measured:
Micrococcus luteus = experiment: In vitro microbiological activity, agar petri-dish filter-disc test (zones of bacteriostatic activity versus time); type: cell-based; details: identical concentrations of drug; observed until 216 hours post-application
Experimental: The microbiological activity of various concentrations of water-soluble complexes of clarithromycin prepared in Example 3 was tested on the bacterium Micrococcus luteus, which is sensitive to macrolide antibiotics, and compared to uncomplexed commercial clarithromycin using well-known agar-filled petri-dish tests. Small filter paper cut discs were impregnated with two different solution concentrations (100 or 1,000 μ/ml) of the tested antibiotics. Diameters of the zones pf bacteriostatic activity were measured versus time. […] It was also observed that the difference in microbiological activity for complexed clarithromycin having concentration differences of an order of magnitude between them is vastly greater than the corresponding differences noted with uncomplexed clarithromycin.

[1] = rats, same oral dose of 150 mg/kg; cited from earlier work
[2] = Solubility of erythromycin alone and as nano-dispersion with modified starch; type: physicochemical

Compound | time until which antibacterial activity continued (Micrococcus luteus) | AUC0-24 hours, published data [1] [µg·h/mL] | solubility of the original drug in water [2] [%]
CC[C@H]1OC(=O)[C@H](C)[C@@H](O[C@H]2C[C@@](C)(OC)[C@@H](O)[C@H](C)O2)[C@H](C)[C@@H](O[C@@H]2O[C@H](C)C[C@H](N(C)C)[C@H]2O)[C@](C)(OC)C[C@@H](C)C(=O)[C@H](C)[C@@H](O)[C@]1(C)O [commercial clarithromycin, clarithromycin] | approximately 48 hours | 32.54 | –
CC[C@H]1OC(=O)[C@H](C)[C@@H](O[C@H]2C[C@@](C)(OC)[C@@H](O)[C@H](C)O2)[C@H](C)[C@@H](O[C@@H]2O[C@H](C)C[C@H](N(C)C)[C@H]2O)[C@](C)(O)C[C@@H](C)C(=O)[C@H](C)[C@@H](O)[C@]1(C)O [Erythromycin, erythromycin] | – | – | 0.2
